Activity calls are given as the source filed them. No stated cut-off is given here; in the data, actives have a measured EC50 and inactives only a lower limit.
Experiments:
[1] = C. albicans growth with fluconazole, confirmation, fluorescence, retest (AID 2467); assay type: functional, cell-based
[2] = NIH-3T3 fibroblast cytotoxicity, dose response, cytotoxicity control, cell-based, fluorescence, Alamar Blue, secondary assay (AID 2327); assay type: functional;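 further: NIH-3T3 mouse fibroblasts cultured with fluconazole at 8 µg/mL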
Protein RecA = target: T1, Protein RecA (Mycobacterium tuberculosis, UniProt P9WHJ3); assay: Fluorescence Cell-Free Homogeneous Dose Retest to Identify Inhibitors of RecA-Intein Splicing Activity. [Related pubchem assays (depositor defined):AID2097, AID2223, AID489010, AID492950]; assay type: functional
T1 sequence (P9WHJ3 whole entry): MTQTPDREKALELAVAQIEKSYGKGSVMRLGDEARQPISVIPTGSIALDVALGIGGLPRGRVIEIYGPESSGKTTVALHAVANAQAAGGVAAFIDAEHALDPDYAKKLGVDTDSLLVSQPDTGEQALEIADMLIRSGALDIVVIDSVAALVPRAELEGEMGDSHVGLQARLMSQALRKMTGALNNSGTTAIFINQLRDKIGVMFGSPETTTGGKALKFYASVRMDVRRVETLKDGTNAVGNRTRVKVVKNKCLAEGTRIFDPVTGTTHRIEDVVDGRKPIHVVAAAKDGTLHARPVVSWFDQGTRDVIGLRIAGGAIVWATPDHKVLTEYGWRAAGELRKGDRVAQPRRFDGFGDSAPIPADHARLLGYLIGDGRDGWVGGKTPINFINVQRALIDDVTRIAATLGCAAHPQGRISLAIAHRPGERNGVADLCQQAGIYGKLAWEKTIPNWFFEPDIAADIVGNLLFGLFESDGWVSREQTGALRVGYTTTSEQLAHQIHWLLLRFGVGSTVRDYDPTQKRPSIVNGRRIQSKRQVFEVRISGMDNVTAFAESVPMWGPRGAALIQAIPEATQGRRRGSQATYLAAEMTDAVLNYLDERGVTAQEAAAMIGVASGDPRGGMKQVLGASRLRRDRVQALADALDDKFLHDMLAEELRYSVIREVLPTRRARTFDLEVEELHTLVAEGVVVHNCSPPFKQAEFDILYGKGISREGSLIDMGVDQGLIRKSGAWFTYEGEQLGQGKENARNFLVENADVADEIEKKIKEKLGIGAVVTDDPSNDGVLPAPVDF

Row | SMILES | EC50 [1] | EC50 [2] | EC50 (Protein RecA)
1 | O=C(Nc1cccc(NC(=O)c2ccccc2Cl)c1)c1ccc([N+](=O)[O-])o1 | 2.84 µM (active) | 12.1 µM (inconclusive) | –
2 | COc1ccc(CC2=CC(=O)c3ccccc3C2=O)cc1 | – | – | 3.37 µM (active)
3 | c1coc(-c2nnc(-c3ccco3)nn2)c1 | – | – | 7.01 µM (active)
4 | Cn1c(O)c(/C=N/NC(=O)c2cc3ccccc3cc2O)c2ccccc21 | 2.97 µM (active) | > 160 µM (inconclusive) | –

From ChEMBL document CHEMBL1201862, “PubChem BioAssay data set” (2004)
